Experiment [1] deals with T1, FXR (Homo sapiens, UniProt Q96RI1).
T1 construct: host or cells: CHO cells
T1 sequence (Q96RI1 1-486): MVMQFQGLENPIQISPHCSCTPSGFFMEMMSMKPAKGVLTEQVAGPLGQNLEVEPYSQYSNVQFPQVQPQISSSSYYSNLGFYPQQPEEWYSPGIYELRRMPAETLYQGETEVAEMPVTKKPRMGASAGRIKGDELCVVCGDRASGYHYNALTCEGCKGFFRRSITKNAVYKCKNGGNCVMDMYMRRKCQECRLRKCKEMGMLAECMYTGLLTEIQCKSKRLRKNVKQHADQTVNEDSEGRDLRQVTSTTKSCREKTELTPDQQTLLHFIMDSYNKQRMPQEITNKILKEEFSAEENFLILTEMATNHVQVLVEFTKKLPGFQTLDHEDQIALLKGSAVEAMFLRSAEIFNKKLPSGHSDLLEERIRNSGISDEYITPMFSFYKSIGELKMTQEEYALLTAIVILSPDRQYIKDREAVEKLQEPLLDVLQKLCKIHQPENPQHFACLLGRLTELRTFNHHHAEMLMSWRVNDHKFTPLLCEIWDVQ
The experiment can be described thus: CHO cell-based FXR luciferase reporter assay (Indigo Biosciences). Particulars: for FXR Efficacy (%) (1 µM) / FXR Efficacy (%) (10 µM): % vs OCA 1 µM as 100%. Here is the method: To evaluate direct agonist activities against FXR, test compounds were evaluated using a CHO cell-based FXR assay by Indigo Biosciences (State College, PA), in which cells were transfected with an FXR luciferase reporter system.
To directly evaluate the in vitro agonist activity towards FXR, test compounds were evaluated in CHO cells transfected with FXR responsive luciferase reporter (Nuclear Receptor & In Vitro Toxicology Solutions, Indigo Biosciences, State College, PA, USA). […] Each compound was tested in duplicate, and the average value was reported[35],[36].
(§1) The cell recovery medium (CRM, Human Farnesoid X Receptor (NR1H4, FXR reporter assay system, Indigo Biosciences, State College, PA, USA) and compound screening medium (CSM, Human Farnesoid X Receptor (NR1H4, FXR reporter assay system, Indigo Biosciences, State College, PA, USA) were removed from the freezer and thawed in a water bath at 37 °C. Test compounds were dissolved in dimethyl sulfoxide (DMSO, FUJIFILM Wako Pure Chemical Corporation, Osaka city, Osaka, Japan), and the treatment medium was prepared and diluted with CSM to achieve a final concentration of 0.2% total DMSO. The reporter cells were thawed by transferring 3.3 mL CRM at 37 °C into tubes of frozen cells. The tube containing reporter cells was recapped, and it was immediately place in a 37 °C water bath for 5 min. The reporter cells were gently inverted several times, and 100 µL cell suspension was dispensed into each well. One hundred microliters of treatment media was added into wells. Subsequently, the assay plate was kept at 37 °C, and it was incubated with 5% CO2 for 22 h. To prepare luciferase detection reagent (LDR), the detection substrate was gently mixed with detection buffer, media contents were removed from each well, and 100 µL LDR was added to each well of the assay plate. The assay plate was allowed to rest at room temperature for 5 min, and luminescence was quantified using the Multi-Mode Microplate Reader (FlexStation 3, Molecular Devices Inc., San Jose, CA, USA)[36].
S4. In vitro, in vivo assay, and selectvity.
To directly evaluate the in vitro agonist activity towards FXR, test compounds were evaluated in CHO cells transfected with FXR responsive luciferase reporter (Nuclear Receptor & In Vitro Toxicology Solutions, Indigo Biosciences, State College, PA, USA). Cells were incubated with […]
(FlexStation 3, Molecular Devices Inc., San Jose, CA, USA). Efficacies are reported relative to […]
reporter on of 1 µM. Each compound was tested in duplicate, and the average value was […]
as §1, with “sulfoxide (DMSO ,” for “sulfoxide (DMSO,”, “Osaka, Jap an),” for “Osaka, Japan),”, “a 37°C” for “a 37 °C”, “5% CO 2” for “5% CO2”, “using […]” for “using the Multi-Mode Microplate Reader (FlexStation 3, Molecular Devices Inc., San Jose, CA, USA)[36].”
On the technique in general: A reporter such as luciferase makes a cellular process visible.

For experiment [2], the target named is T2, TGR5 (Homo sapiens, UniProt Q8TDU6).
T2 construct: host or cells: CHO cells
T2 sequence (Q8TDU6 1-330): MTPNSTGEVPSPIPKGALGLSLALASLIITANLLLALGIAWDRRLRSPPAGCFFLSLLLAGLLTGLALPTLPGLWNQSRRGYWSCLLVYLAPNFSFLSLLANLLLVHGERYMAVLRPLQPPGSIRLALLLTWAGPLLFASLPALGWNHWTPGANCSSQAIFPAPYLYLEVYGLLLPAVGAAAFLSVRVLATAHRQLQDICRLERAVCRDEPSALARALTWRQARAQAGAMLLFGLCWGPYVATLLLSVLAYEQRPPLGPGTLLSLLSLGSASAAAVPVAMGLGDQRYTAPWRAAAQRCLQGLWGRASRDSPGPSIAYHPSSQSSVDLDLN
The experiment can be described thus: TGR5 cAMP assay in CHO cells transfected with TGR5 (cAMP Hunter eXpress, Discover X). In kind it is cell-based. As to the method:
TGR5 agonist activity was evaluated by transfecting CHO cells with TGR5 using the Discover X expression kit (cAMP Hunter eXpress GPCR Assay, Discover X Fremont, CA). Cells were incubated with test compounds for 0.5 h, and intracellular cAMP levels were measured using the multi-mode microplate reader.
(§2) TGR5 agonist activity was evaluated by transfecting CHO cells with TGR5 using the Discover X expression kit (cAMP Hunter eXpress Assay Kit, Discover X Fremont, CA, USA). Cells were incubated with the test compounds for 0.5 h, and intracellular cAMP levels were measured using Multi-Mode Microplate Reader (FlexStation 3, Molecular Devices Inc., San Jose, CA, USA).
Each compound was tested at concentrations of 10, 1, or 0.1 µM in duplicate (n = 2), with the average value shown.
S4. In vitro, in vivo assay, and selectvity. […]
In vitro TGR5 agonist assay protocol
as §2
Each compound was tested at concentrations of 10, 1, or 0.1 µM in duplicate (n=2), with the […]
parameter logistic equation, Y = min + (max - min)/(1 + 10^(n * (log10(EC50) - log10(conc)))), in […]
(In general: Changes in cAMP serve as a functional read-out for many G protein-coupled receptors.)

As to `COC(=O)/C=C/c1cccc(N(Cc2ccc(-c3ccc(N(C)C)cc3)cc2)C(=O)c2ccncc2C)c1` [Compound 13a], in experiment [1], the “FXR agonist activity (in words)” value is given as “strong FXR agonist activity with full efficacy”, the “FXR Efficacy (%) (1 µM)” value is given as 24.6% and the “FXR Efficacy (%) (10 µM)” value was 100.2%. Also, the “TGR5 agonist activity (in words)” value in experiment [2] is “inactive against TGR5”. The “TGR5 Efficacy (%) (10 µM)” value in experiment [2] (% vs INT-767 10 µM as 100%) is on record as -3.1%.
In the case of `COc1cnccc1C(=O)N(Cc1ccc(-c2ccc(N(C)C)cc2)cc1)c1cc(Cl)cc(Cl)c1` [Compound 13aa], in experiment [1], the “FXR agonist activity (in words)” value is on record as “weak dual agonist activity” and the “FXR Efficacy (%) (1 µM)” value came to 68.6%. In addition, in experiment [2], the “TGR5 agonist activity (in words)” value is reported as “weak dual agonist activity”. Besides, the “TGR5 Efficacy (%) (10 µM)” value in experiment [2] (% vs INT-767 10 µM as 100%) is 21.5%.
For the compound `CN(C)c1ccc(-c2ccc(CN(C(=O)c3ccnnc3)c3cc(Cl)cc(Cl)c3)cc2)cc1` [Compound 13ab], in experiment [1], the “FXR agonist activity (in words)” value is listed as “did not have any activity against either FXR or TGR5” and the “FXR Efficacy (%) (1 µM)” value is reported as 0.5%. Besides, the “TGR5 agonist activity (in words)” value in experiment [2] was “did not have any activity against either FXR or TGR5”. The “TGR5 Efficacy (%) (10 µM)” value in experiment [2] (% vs INT-767 10 µM as 100%) is given as -12%.
Turning to `CN(C)c1ccc(-c2ccc(CN(C(=O)c3ccccc3Cl)c3cc(Cl)cc(Cl)c3)cc2)cc1` [Compound 13ac], in experiment [1], the “FXR agonist activity (in words)” value is listed as “strong FXR activities” and the “FXR Efficacy (%) (1 µM)” value was determined as 84.3%. The “TGR5 Efficacy (%) (10 µM)” value in experiment [2] (% vs INT-767 10 µM as 100%) is reported as 0.2%.
For `CN(C)c1ccc(-c2ccc(CN(C(=O)C3CCC(O)CC3)c3cc(Cl)cc(Cl)c3)cc2)cc1` (stereo not drawn) [Compound 13ae], in that order: “strong FXR activities”, 101.4% and -1.5%.
For `CN(C)c1ccc(-c2ccc(CN(C(=O)c3ccc(O)cc3Cl)c3cc(Cl)cc(Cl)c3)cc2)cc1` [Compound 13af] the same measures were “strong FXR activities”, 108.2% and -0.2%.
In the case of `COc1ccc(C(=O)N(Cc2ccc(-c3ccc(N(C)C)cc3)cc2)c2cc(Cl)cc(Cl)c2)c(Cl)c1` [Compound 13ag], in experiment [1], the “FXR agonist activity (in words)” value is “strong FXR activities” and the “FXR Efficacy (%) (1 µM)” value stood at 136.5%. For the same compound, in experiment [2], the “TGR5 agonist activity (in words)” value is “significantly low potency against TGR5”. Also, the “TGR5 Efficacy (%) (10 µM)” value in experiment [2] (% vs INT-767 10 µM as 100%) came out at 1.1%.
Take `Cc1cnccc1C(=O)N(Cc1ccc(-c2ccccc2)cc1)c1cc(Cl)cc(Cl)c1` [Compound 13ah]: the “FXR Efficacy (%) (1 µM)” value in experiment [1] is reported as 17.7%. For the same compound, in experiment [2], the “TGR5 agonist activity (in words)” value was “TGR5 full agonist”. The “TGR5 Efficacy (%) (10 µM)” value in experiment [2] (% vs INT-767 10 µM as 100%) was 118.6%.
`COC(=O)/C=C/c1cccc(N(Cc2ccc(-c3ccc(N(C)C)cc3)cc2)C(=O)c2ccncc2)c1` [Compound 13b]: in experiment [1], the “FXR Efficacy (%) (1 µM)” value was determined as 16.7% and the “FXR Efficacy (%) (10 µM)” value worked out at 86.9%. The “TGR5 agonist activity (in words)” value in experiment [2] was “inactive against TGR5”. The “TGR5 Efficacy (%) (10 µM)” value in experiment [2] (% vs INT-767 10 µM as 100%) is -2.8%.
In the case of `COC(=O)/C=C/c1cccc(N(Cc2ccc(-c3ccc(N(C)C)cc3)cc2)C(=O)c2cccnc2)c1` [Compound 13c], the “FXR Efficacy (%) (10 µM)” value in experiment [1] is on record as 68.1%. The “TGR5 Efficacy (%) (10 µM)” value in experiment [2] (% vs INT-767 10 µM as 100%) is 1.7%.
Consider `COC(=O)/C=C/c1cccc(N(Cc2ccc(-c3ccc(N(C)C)cc3)cc2)C(=O)c2ccccc2)c1` [Compound 13d], for which, in experiment [1], the “FXR Efficacy (%) (1 µM)” value is reported as 24.5% and the “FXR Efficacy (%) (10 µM)” value stood at 88.9%. Besides, the “TGR5 Efficacy (%) (10 µM)” value in experiment [2] (% vs INT-767 10 µM as 100%) came out at 0.0%.
Turning to `Cc1cnccc1C(=O)N(Cc1ccc(-c2ccc(N(C)C)cc2)cc1)c1ccc(F)cc1C` [Compound 13e], the “FXR Efficacy (%) (1 µM)” value in experiment [1] worked out at 2.0%. Also, in experiment [2], the “TGR5 agonist activity (in words)” value was “strong TGR5 agonist activity”. Further, the “TGR5 Efficacy (%) (10 µM)” value in experiment [2] (% vs INT-767 10 µM as 100%) was found to be 87.5%.
Consider `Cc1cc(F)ccc1N(Cc1ccc(-c2ccc(N(C)C)cc2)cc1)C(=O)c1ccncc1` [Compound 13f], for which the “FXR Efficacy (%) (1 µM)” value in experiment [1] stood at 0.5%. For the same compound, in experiment [2] (% vs INT-767 10 µM as 100%), the “TGR5 Efficacy (%) (10 µM)” value is listed as 32.0%.
For `Cc1cc(F)ccc1N(Cc1ccc(-c2ccc(N(C)C)cc2)cc1)C(=O)c1cccnc1` [Compound 13g], the “FXR Efficacy (%) (1 µM)” value in experiment [1] is given as 1.2%. Further, in experiment [2] (% vs INT-767 10 µM as 100%), the “TGR5 Efficacy (%) (10 µM)” value is reported as 0.8%.
As for `COC(=O)/C=C/c1ccc(C)c(N(Cc2ccc(-c3ccc(N(C)C)cc3)cc2)C(=O)c2ccncc2C)c1` [Compound 13h], the “FXR Efficacy (%) (1 µM)” value in experiment [1] turned out to be 25.3%. For the same compound, the “TGR5 Efficacy (%) (10 µM)” value in experiment [2] (% vs INT-767 10 µM as 100%) came out at 0.2%.
Turning to `COC(=O)/C=C/c1cccc(N(Cc2ccc(-c3ccc(N(C)C)cc3)cc2)C(=O)c2ccncc2C)c1C` [Compound 13i], in experiment [1], the “FXR agonist activity (in words)” value is “weak FXR/TGR5 dual agonist activity” and the “FXR Efficacy (%) (1 µM)” value is given as 32.1%. Moreover, the “TGR5 agonist activity (in words)” value in experiment [2] is “weak FXR/TGR5 dual agonist activity”. For the same compound, the “TGR5 Efficacy (%) (10 µM)” value in experiment [2] (% vs INT-767 10 µM as 100%) is reported as 47.2%.
Take `CCC1C(O)C2C3CCC(C(C)CCOS(=O)(=O)O)C3(C)CCC2C2(C)CCC(O)CC12` (stereo not drawn) [INT-767, reference compound]: in experiment [2] (0.1 µM, % vs INT-767 10 µM as 100%), the “TGR5 Efficacy (%) (0.1 µM)” value is 1.7%. Besides, the “TGR5 Efficacy (%) (1 µM)” value in experiment [2] (1 µM, % vs INT-767 10 µM as 100%) was determined as 25.5%. In addition, in experiment [2] (% vs INT-767 10 µM as 100%), the “TGR5 Efficacy (%) (10 µM)” value worked out at 100%.

The values above are taken from PMC8080777, “Discovery, optimization, and evaluation of non-bile acid FXR/TGR5 dual agonists” (Scientific Reports, 2021).
